Measured values: article PMC4847013, “Pronounced peptide selectivity for melanoma through tryptophan end-tagging” (Scientific Reports, 2016)
Counter-ions that a name gives are not always drawn. Ends that are not written are not given here.

Columns and labels:
tumor cells = tested on: tumor cells; design: method as in PMID 20876209, PMID 20406839; conditions: cited from earlier work
From the text: However, since it is taken up by tumor cells through passive diffusion, the overall response rate of doxorubicin is only about 30%[51][52].

fibroblasts = assay: Lactate dehydrogenase (LDH) assay; type: cell-based; conditions: 48 h, 1% FBS, LDH release relative to 1% Triton X-100, triplicate, Fig. 8a
erythrocytes = assay: Hemolysis assay; type: cell-based; conditions: 5% erythrocytes in PBS pH 7.4, 1 h, 37 °C, peptides 60 or 120 μM, % of 2% Triton X-100, triplicate, Fig. 8b
Method: EDTA-blood was centrifuged at 800 g for 10 min, whereafter plasma and buffy coat were removed. The erythrocytes were washed three times and resuspended to 5% in PBS, pH 7.4. The cells were then incubated with end-over-end rotation for 1 h at 37 °C in the presence of peptides (60 or 120 μM). 2% Triton X-100 (Sigma-Aldrich, St. Louis, USA) served as positive control. The samples were then centrifuged at 800 g for 10 min. The absorbance of hemoglobin release was measured at 540 nm and is expressed as % of Triton X-100 induced hemolysis. Results given represent mean values from triplicate measurements.

| Molecule | overall response rate (tumor cells) | Concentration up to which no significant toxicity is seen (LDH release) (fibroblasts) | Concentration up to which hemolysis is very low, at the background level of the negative control (erythrocytes) |
| --- | --- | --- | --- |
| COc1cccc2c1C(=O)c1c(O)c3c(c(O)c1C2=O)C[C@@](O)(C(=O)CO)C[C@@H]3O[C@H]1C[C@H](N)[C@H](O)[C@H](C)O1 [doxorubicin, Doxorubicin hydrochloride] | about 30% | – | – |
| GRRPRPRPRP [GRR10] | – | at least 50 μM | at least 120 μM |
| GRRPRPRPRPWWWW [GRR10W4] | – | at least 50 μM | at least 120 μM |
